Experimental data reported in paper PMC7105138, “Modeling cancer genomic data in yeast reveals selection against ATM function during tumorigenesis” (PLoS Genetics, 2020).
Residue numbers refer to the chain shown, from its start.

Experiments:
Rad50 [1] = target: T1, Rad50 (Saccharomyces cerevisiae, UniProt P12753); test: nitrocellulose filter binding, […]-ATP; conditions: 2 uM Rad50, 50 uM ATP incl. 0.1 uM alpha-32P-ATP (labelled compound), 2 mM MgCl2, pH 8.0, RT then ice
T1 construct: full-length Rad50 with C-terminal 1xFLAG tag (DYKDDDDK), tag kept; plasmid pR50.1 (2mu, GAL-PGK-RAD50); overexpressed and purified from yeast
T1 sequence (P12753 1-1312): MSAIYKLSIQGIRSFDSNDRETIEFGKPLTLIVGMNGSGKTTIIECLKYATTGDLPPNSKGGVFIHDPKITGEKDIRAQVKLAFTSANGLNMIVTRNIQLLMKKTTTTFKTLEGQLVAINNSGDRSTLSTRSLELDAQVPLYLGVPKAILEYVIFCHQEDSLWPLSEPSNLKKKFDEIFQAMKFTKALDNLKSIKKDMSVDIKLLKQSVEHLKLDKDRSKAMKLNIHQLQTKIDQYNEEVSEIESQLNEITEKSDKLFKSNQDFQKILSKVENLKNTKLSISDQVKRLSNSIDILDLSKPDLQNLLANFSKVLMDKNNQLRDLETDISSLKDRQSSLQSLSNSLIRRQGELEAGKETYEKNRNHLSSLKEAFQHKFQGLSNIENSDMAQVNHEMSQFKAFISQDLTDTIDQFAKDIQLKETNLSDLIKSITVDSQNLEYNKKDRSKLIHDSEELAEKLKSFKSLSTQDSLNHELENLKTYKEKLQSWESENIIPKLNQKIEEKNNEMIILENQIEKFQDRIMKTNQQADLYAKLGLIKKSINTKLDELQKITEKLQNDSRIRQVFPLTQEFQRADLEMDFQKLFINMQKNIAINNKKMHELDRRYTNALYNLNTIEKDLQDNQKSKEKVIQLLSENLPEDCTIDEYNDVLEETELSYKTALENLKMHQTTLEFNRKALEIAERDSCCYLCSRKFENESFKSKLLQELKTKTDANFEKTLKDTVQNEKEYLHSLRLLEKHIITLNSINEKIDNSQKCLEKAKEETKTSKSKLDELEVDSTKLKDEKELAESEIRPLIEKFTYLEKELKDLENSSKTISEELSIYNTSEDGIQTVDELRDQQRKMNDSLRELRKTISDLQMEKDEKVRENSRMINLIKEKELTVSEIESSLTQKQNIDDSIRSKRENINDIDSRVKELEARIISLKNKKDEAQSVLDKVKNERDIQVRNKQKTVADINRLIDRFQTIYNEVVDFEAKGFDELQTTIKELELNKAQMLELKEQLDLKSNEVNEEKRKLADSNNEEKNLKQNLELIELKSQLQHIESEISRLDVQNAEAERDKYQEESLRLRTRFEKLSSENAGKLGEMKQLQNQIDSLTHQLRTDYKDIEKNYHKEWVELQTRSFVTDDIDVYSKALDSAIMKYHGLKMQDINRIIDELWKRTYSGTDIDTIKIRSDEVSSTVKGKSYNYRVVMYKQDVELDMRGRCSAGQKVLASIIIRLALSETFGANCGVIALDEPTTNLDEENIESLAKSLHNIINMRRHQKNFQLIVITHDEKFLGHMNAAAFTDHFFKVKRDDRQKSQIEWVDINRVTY

Rad50 [2] = target: T2, Rad50 (Saccharomyces cerevisiae, UniProt P12753, D67Y); test: nitrocellulose filter binding, […]-ATP; conditions: 2 uM Rad50, 50 uM ATP incl. 0.1 uM alpha-32P-ATP (labelled compound), 2 mM MgCl2, pH 8.0, RT then ice
T2 construct: full-length Rad50 with C-terminal 1xFLAG tag (DYKDDDDK), tag kept; plasmid pR50.1 (2mu, GAL-PGK-RAD50); overexpressed and purified from yeast
T2 sequence (P12753 1-1312 D67Y): T1 sequence (P12753 1-1312) with D67Y

Rad50 [3] = target: T3, Rad50 (Saccharomyces cerevisiae, UniProt P12753, D67N); test: nitrocellulose filter binding, […]-ATP; conditions: 2 uM Rad50, 50 uM ATP incl. 0.1 uM alpha-32P-ATP (labelled compound), 2 mM MgCl2, pH 8.0, RT then ice
T3 construct: full-length Rad50 with C-terminal 1xFLAG tag (DYKDDDDK), tag kept; plasmid pR50.1 (2mu, GAL-PGK-RAD50); overexpressed and purified from yeast
T3 sequence (P12753 1-1312 D67N): T1 sequence (P12753 1-1312) with D67N

Rad50 [4] = target: T4, Rad50 (Saccharomyces cerevisiae, UniProt P12753, L1240F); test: nitrocellulose filter binding, […]-ATP; conditions: 2 uM Rad50, 50 uM ATP incl. 0.1 uM alpha-32P-ATP (labelled compound), 2 mM MgCl2, pH 8.0, RT then ice
T4 construct: full-length Rad50 with C-terminal 1xFLAG tag (DYKDDDDK), tag kept; plasmid pR50.1 (2mu, GAL-PGK-RAD50); overexpressed and purified from yeast
T4 sequence (P12753 1-1312 L1240F): T1 sequence (P12753 1-1312) with L1240F

[5] = tested on: Rad50 WT (Saccharomyces cerevisiae); test: EMSA; conditions: ATP, 5 mM Mg2+, 150 mM NaCl; 25 mM Tris-Cl pH 7.6, 150 mM NaCl (also 50, 250, 300 mM), 7.5% glycerol, 1 mM beta-mercaptoethanol, 0.125% Igepal, 5 mM MgCl2, with or without 5 mM ATP; 5 nM …

| Compound | molar ratio of bound ATP to Rad50 (Rad50 [1]) [ATP/Rad50] | ATP/Rad50 (Rad50 [2]) [ATP/Rad50] | ATP/Rad50 (Rad50 [3]) [ATP/Rad50] | ATP/Rad50 (Rad50 [4]) [ATP/Rad50] | Kd [5] [nM] |
| --- | --- | --- | --- | --- | --- |
| Nc1ncnc2c1ncn2[C@@H]1O[C@H](COP(=O)(O)OP(=O)(O)OP(=O)(O)O)[C@@H](O)[C@H]1O [ATP] | 1.1 | 0.7 | 0.6 | 0.4 | – |
| 83-mer dsDNA oligonucleotide | – | – | – | – | 180 |
